Experimental data reported in patent publication US20050245563A1 (Millennium Pharmaceuticals, Inc., priority 2003, published 2005).
pIC50: −log10 of the molar value.

Target: T1, human Chk1 (GST-Chk1) (Homo sapiens, UniProt O14757)
T1 construct: made in house; host or cells: insect cells (baculovirus, Bac-to-Bac)
T1 sequence (O14757 1-476): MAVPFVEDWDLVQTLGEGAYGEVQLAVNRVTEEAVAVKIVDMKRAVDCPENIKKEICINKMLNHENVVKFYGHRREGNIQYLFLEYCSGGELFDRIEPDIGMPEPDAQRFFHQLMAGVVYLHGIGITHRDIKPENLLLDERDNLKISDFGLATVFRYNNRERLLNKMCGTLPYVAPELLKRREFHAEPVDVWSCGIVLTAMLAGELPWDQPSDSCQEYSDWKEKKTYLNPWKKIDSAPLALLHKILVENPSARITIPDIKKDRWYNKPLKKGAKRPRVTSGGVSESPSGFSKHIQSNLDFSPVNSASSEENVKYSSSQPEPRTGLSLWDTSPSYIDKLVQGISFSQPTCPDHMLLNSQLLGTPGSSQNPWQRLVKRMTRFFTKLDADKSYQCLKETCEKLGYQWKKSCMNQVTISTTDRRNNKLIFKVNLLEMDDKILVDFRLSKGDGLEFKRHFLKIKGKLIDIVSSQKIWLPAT
Test: Chk1 FlashPlate kinase assay
Format: biochemical
Settings: 8.7 nM GST-Chk1, 1 uM ATP, 33P incorporation into peptide substrate
Summary of the method: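 GST-tagged human Chk1 (8.7 nM), baculovirus-expressed, with 3 uM biotinylated peptide, 1 uM ATP plus ^33P-γ-ATP, in MES/EGTA pH 8.0, DTT, Tween 20, 4% DMSO; 30 min at room temperature. EDTA-stopped; phosphopeptide captured on streptavidin FlashPlates and ^33P counted by scintillation.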

SMILES | pIC50
Cc1[nH]nc2c1c(=O)n(CCCN)c1ccc(N3CCN(C)CC3)cc21 [Example 121, 5-(3-Amino-propyl)-3-methyl-8-(4-methyl-piperazin-1-yl)-2,5-dihydro-pyrazolo[4,3-c]quinolin-4-one] | > 6.00
Cc1[nH]nc2c1c(=O)n(CCCNC(=O)CN)c1ccccc21 [Example 122, 2-Amino-N-[3-(3-methyl-4-oxo-2,4-dihydro-pyrazolo[4,3-c]quinolin-5-yl)-propyl]-acetamide] | > 6.00
Cc1[nH]nc2c1c(=O)n(CCCNC(=O)C(N)CCCCN)c1ccccc21 (centres unmarked) [Example 123, 2,6-Diamino-hexanoic acid [3-(3-methyl-4-oxo-2,4-dihydro-pyrazolo[4,3-c]quinolin-5-yl)-propyl]-amide] | > 6.00
Cc1[nH]nc2c1c(=O)n(CCCNC(=O)CCN)c1ccccc21 [Example 124, 3-Amino-N-[3-(3-methyl-4-oxo-2,4-dihydro-pyrazolo[4,3-c]quinolin-5-yl)-propyl]-propionamide] | > 6.00
Cc1[nH]nc2c1c(=O)n(CCCNC(=O)c1ccc(OC(F)(F)F)cc1)c1ccccc21 [Example 125, N-[3-(3-Methyl-4-oxo-2,4-dihydro-pyrazolo[4,3-c]quinolin-5-yl)-propyl]-4-trifluoromethoxy-benzamide] | > 6.00
